Assay results published in ChEMBL document CHEMBL1201862, “PubChem BioAssay data set” (2004).
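48-hour exposure; five concentrations; linearly interpolated endpoints. GI50 marks 50% less growth.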 Calls of active or inactive are those of the source. Rule as the data show it: active = GI50 up to about 1.1 µM and inactive = higher.

Assays:
Assay in all cases: NCI anticancer screen, dose series, 48 h
BT-549 = tested on: BT-549
CAKI-1 = tested on: CAKI-1
COLO 205 = tested on: COLO 205
DU-145 = tested on: DU-145
HCC 2998 = tested on: HCC 2998
HOP-62 = tested on: HOP-62
KM12 = tested on: KM12
MDA-MB-231 = tested on: MDA-MB-231
MDA-MB-435 = tested on: MDA-MB-435
MOLT-4 = tested on: MOLT-4
OVCAR-3 = tested on: OVCAR-3
PC-3 = tested on: PC-3
SF-539 = tested on: SF-539
SK-OV-3 = tested on: SK-OV-3
SNB-19 = tested on: SNB-19
SR = tested on: SR
TK-10 = tested on: TK-10
UACC-257 = tested on: UACC-257
UO-31 = tested on: UO-31
NCI-H460 = tested on: NCI-H460

| SMILES | GI50 (BT-549) | GI50 (CAKI-1) | GI50 (COLO 205) | GI50 (DU-145) | GI50 (HCC 2998) | GI50 (HOP-62) | GI50 (KM12) | GI50 (MDA-MB-231) | GI50 (MDA-MB-435) | GI50 (MOLT-4) | GI50 (OVCAR-3) | GI50 (PC-3) | GI50 (SF-539) | GI50 (SK-OV-3) | GI50 (SNB-19) | GI50 (SR) | GI50 (TK-10) | GI50 (UACC-257) | GI50 (UO-31) | GI50 (NCI-H460) |
| --- | --- | --- | --- | --- | --- | --- | --- | --- | --- | --- | --- | --- | --- | --- | --- | --- | --- | --- | --- | --- |
| C/C=C(\C)c1cc(=O)c2c(C)cc3c(c2o1)C(OC)(OC(C)=O)c1c(O)c(C2CC(C)(N(C)C)C(OC(C)=O)C(C)O2)cc(C2CC(N(C)C)C(OC(C)=O)C(C)O2)c1C3=O (stereo unspecified) | 2.27 µM (inactive) | 0.436 µM (active) | 1.24 µM (inactive) | 0.497 µM (active) | 0.0218 µM (active) | 0.621 µM (active) | 1.14 µM (inactive) | 0.178 µM (active) | 1.52 µM (inactive) | 0.277 µM (active) | 2.28 µM (inactive) | 1.16 µM (inactive) | 1.55 µM (inactive) | 2.75 µM (inactive) | 1.78 µM (inactive) | 0.0251 µM (active) | 1.45 µM (inactive) | 1.55 µM (inactive) | 1.57 µM (inactive) | – |
| O=C(NCCO)c1ccc(Cl)cc1 | > 100 µM (inactive) | > 100 µM (inactive) | – | > 100 µM (inactive) | > 100 µM (inactive) | > 100 µM (inactive) | > 100 µM (inactive) | > 100 µM (inactive) | > 100 µM (inactive) | > 100 µM (inactive) | > 100 µM (inactive) | > 100 µM (inactive) | – | – | > 100 µM (inactive) | > 100 µM (inactive) | > 100 µM (inactive) | > 100 µM (inactive) | > 100 µM (inactive) | > 100 µM (inactive) |
| Cc1ccc(NC(=O)CC(=O)N2N=C(c3ccccc3)C(/N=N/c3ccc(S(=O)(=O)CCOS(=O)(=O)O)cc3)C2=O)cc1 (stereo unspecified) | > 100 µM (inactive) | > 100 µM (inactive) | > 100 µM (inactive) | > 100 µM (inactive) | > 100 µM (inactive) | 77.6 µM (inactive) | 86.3 µM (inactive) | > 100 µM (inactive) | > 100 µM (inactive) | > 100 µM (inactive) | > 100 µM (inactive) | > 100 µM (inactive) | > 100 µM (inactive) | – | > 100 µM (inactive) | > 100 µM (inactive) | > 100 µM (inactive) | > 100 µM (inactive) | > 100 µM (inactive) | > 100 µM (inactive) |
| Cc1c2ncccc2cc2oc3ccccc3c(=O)c12 | 55.8 µM (inactive) | 17.7 µM (inactive) | 31.2 µM (inactive) | 29.2 µM (inactive) | 60.7 µM (inactive) | 30.9 µM (inactive) | 55.6 µM (inactive) | 92 µM (inactive) | 56.8 µM (inactive) | 2.94 µM (inactive) | 33.9 µM (inactive) | 75.7 µM (inactive) | > 100 µM (inactive) | > 100 µM (inactive) | – | 41.2 µM (inactive) | 91.4 µM (inactive) | 58.5 µM (inactive) | 7.06 µM (inactive) | 5.46 µM (inactive) |
| CCOC(=O)c1cc2c3c(c(C(C)=O)c(O)c2[nH]1)N(C(C)=O)CC3 | 52 µM (inactive) | > 100 µM (inactive) | 63.2 µM (inactive) | 82.6 µM (inactive) | – | > 100 µM (inactive) | 45.4 µM (inactive) | > 100 µM (inactive) | 89.3 µM (inactive) | 27.7 µM (inactive) | 34 µM (inactive) | 48.3 µM (inactive) | 48.9 µM (inactive) | > 100 µM (inactive) | > 100 µM (inactive) | 50.6 µM (inactive) | 40.6 µM (inactive) | > 100 µM (inactive) | 31.2 µM (inactive) | > 100 µM (inactive) |
| Oc1ncc(Cl)c(O)n1 | > 100 µM (inactive) | > 100 µM (inactive) | > 100 µM (inactive) | > 100 µM (inactive) | > 100 µM (inactive) | – | > 100 µM (inactive) | > 100 µM (inactive) | > 100 µM (inactive) | > 100 µM (inactive) | > 100 µM (inactive) | > 100 µM (inactive) | > 100 µM (inactive) | > 100 µM (inactive) | > 100 µM (inactive) | > 100 µM (inactive) | > 100 µM (inactive) | > 100 µM (inactive) | > 100 µM (inactive) | > 100 µM (inactive) |
| CN(C)c1ccc(/C=C(/NC(=O)c2ccccc2)C(=O)Nc2ccccc2C(=O)O)cc1 | > 100 µM (inactive) | > 100 µM (inactive) | > 100 µM (inactive) | > 100 µM (inactive) | > 100 µM (inactive) | > 100 µM (inactive) | > 100 µM (inactive) | > 100 µM (inactive) | > 100 µM (inactive) | > 100 µM (inactive) | > 100 µM (inactive) | > 100 µM (inactive) | > 100 µM (inactive) | > 100 µM (inactive) | > 100 µM (inactive) | > 100 µM (inactive) | – | > 100 µM (inactive) | > 100 µM (inactive) | > 100 µM (inactive) |
